4 molecules from patent US5610297A, “Peptides ketoamides” (Georgia Tech Research Corp., priority 1995, dated 1997) can be followed below.

Assay [1] concerns the target cathepsin B. In words: Inhibition of cathepsin B. Format: biochemical. As to conditions: read-out: KI Cath B. How it is done:
Materials and Methods. HEPES, heparin, and A23187 were obtained from Calbiochem. Suc-Leu-Tyr-AMC and chromogenic substrates were obtained from Sigma. Calpain I was purified from human erythrocytes according to the method of Kitahara (Kitahara et al., J. Biochem. 95, 1759-1766) omitting the Blue-Sepharose step. Calpain II from rabbit muscle and cathepsin B were purchased from Sigma. Papain was purchased from Calbiochem.
Assay of Inhibitory Potency. Peptide α-ketoamides were assayed as reversible enzyme inhibitors. Various concentrations of inhibitors in Me2 SO were added to the assay mixture which contained buffer and substrate. The reaction was started by the addition of the enzyme and the hydrolysis rates were followed spectrophotometrically or fluorimetrically.
Calpain I from human erythrocytes and calpain II from rabbit were assayed using Suc-Leu-Tyr-AMC [Sasaki et al., J. Biol. Chem. 259, 12489-12494 (1984); incorporated herein by reference], and the AMC (7-amino-4-methylcoumarin) release was followed fluorimetrically (excitation at 380 nm, and emmision at 460 nm). Calpains were assayed in 25 mM Tris pH=8.0, 10 mM CaCl2. Fluorescence was followed using a Gilson FL-1A fluorometer or a Perkin-Elmer 203 Fluorescence spectrometer. Cathepsin B was assayed in 20 mM sodium acetate pH=5.2, 0.5 mM dithiothreitol using Bz-Phe-Val-Arg-p-nitroanilide as substrate. Alternately, cathepsin B was assayed with Z-Arg-Arg-AFC [Barrett and Kirschke, Methods Enzymol. 80, 535-561 (1981); incorporated herein by reference], and the AFC (7-amino-4-trifluoromethylcoumarin) release was followed fluorimetrically (excitation at 400 nm and emmision at 505 nm). Papain was assayed in 100 mM KPO4, 1 mM EDTA, 2.5 mM cysteine pH=6.0 using Bz-Arg-AMC or Bz-Arg-NA [Kanaoka et al., Chem. Plmrm. Bull. 25, 3126-3128 (1977); incorporated herein by reference] as a substrate. The AMC (7-amino-4-methylcoumarin) release was followed fluorimetrically (excitation at 380 nm, and emmision at 460 nm). Enzymatic hydrolysis rates were measured at various substrate and inhibitor concentrations, and KI values were determined by either Lineweaver-Burk plots or Dixon plots.
A 0.1M Hepes, 0.5M NaCl, pH 7.5 buffer was utilized for human leukocyte elastase (HLE), porcine pancreatic elastase (PPE), chymotrypsin and cathepsin G. A 0.1 Hepes, 0.01M CaCl2, pH 7.5 buffer was utilized for trypsin, plasmin, and coagulation enzymes. A 50 mM Tris-HCl, 2 mM EDTA, 5 mM cysteine, pH 7.5 was used as a buffer for papain. A 88 mM KH2 PO4, 12 mM Na2 HPO4, 1.33 mM EDTA, 2.7 mM cysteine, pH 6.0 solution was used as a buffer for cathepsin B. A 20 mM Hepes, 10 mM CaCl2, 10 mM mercatoethanol, pH 7.2 buffer was utilized for calpain I and calpain II.

The subject of assay [2] is Calpain-mediated breakdown of spectrin in platelets. In words: Platelet membrane permeability assay. Format: cell-based, rat. Details: unit not given here. The note with it: numeric value, unit not given. How it is done: Platelet membrane permeability assay. Calpain-mediated breakdown of spectrin was measured by quantitative densitometry of the calpain-specific 150/155 kDa spectrin fragment doublet [see Siman et al., Proc. Natl. Acad. Sci. USA 81, 3572-3576 (1984)]. Platelets were isolated by a modification of the method of Ferrell and Martin [J. Biol. Chem. 264, 20723-20729 (1989)]. Blood (15-20 ml) was drawn from male Sprague-Dawley rats into 1/10th volume of 100 mM EDTA-citrate, and centrifuged 10 minutes at 2000 rpm in a clinical centrifuge at room temperature. […] Platelets were washed once in 15 ml buffer 1, then resuspended to 10^7 cells/ml in buffer 2 (136 mM NaCl, 2.7 mM KCl, 0.42 mM NaH2 PO4, 12 mM NaHCO3, 2mM MgCl, 1 mg/ml BSA (Sigma), 5.6 mM glucose, 20 mM HEPES (Sigma) pH 7.4) and allowed to "rest" for a minimum of 10 minutes at room temperature before use.
Inhibitors were added from stock solutions made fresh in DMSO. 100 μl platelets, suspended to 10^7 cells/ml in buffer 2, were incubated with 1 μl of an inhibitor solution for 5 minutes at room temperature prior to the addition of 2 mM Ca^2+ and 1 uM A23 187. After 10 minutes total exposure to inhibitor (5 minutes exposure to ionophore) at room temperature, platelets were reisolated at 14,000 rpm for 10 sec in a Beckman microfuge, dissolved in SDS-PAGE sample buffer, and heated to 90° C. for 3 minutes.
Samples were subjected to SDS-PAGE in 4-12% gradient mini gels (Novex) and transferred to nitrocellulose (Schleicher and Schuell 0.45 um) by electroblotting. Filters were blocked for 10 minutes in 0.25% gelatin, 1% BSA, 0.25% triton X100, 0.9% NaCl, 10 mM Tris-Cl pH 7.5, incubated overnight in the same solution containing antibody to rat spectrin, washed 3×10 minutes with 10 mM Tris-Cl pH 7.5, 0.5% triton X100, incubated 4 hours in wash buffer plus alkaline phosphatase conjugated goat anti-rabbit antibody (Biorad), and washed as above. Blots were developed using the Biorad AP conjugate substrate kit. Quantitative densitometry was used to obtain values for the intact spectrin bands and the 150/155 kDa breakdown product doublet.

In the case of `CCCCNC(=O)C(=O)C(CC)NC(=O)C(CC(C)C)NC(=O)OCc1ccccc1` (stereo not drawn) [Z--Leu--Abu--CONH--nBu, Z-Leu-Abu-CONH-nBu], the Ki in assay [1] was determined as 13 µM. In assay [2], the “platelet (Activity in the Platelet Assay)” value (shortened to “platelet”) is on record as 2.0.

`CCNC(=O)C(=O)[C@H](CC)NC(=O)[C@H](CC(C)C)NC(=O)OCc1ccccc1` [Z--Leu--Abu--CONH--Et, Z-Leu-Abu-CONH-Et]: in assay [1], the Ki came out at 2.4 µM. The “platelet” value in assay [2] amounted to 1.5.

With `CCNC(=O)C(=O)[C@H](Cc1ccccc1)NC(=O)[C@H](CC(C)C)NC(=O)OCc1ccccc1` [Z--Leu--Phe--CONH--Et, Z-Leu-Phe-CONH-Et], in assay [1], the Ki is 6 µM. For the same molecule, in assay [2], the “platelet” value is recorded as 1.7.

Regarding `CCCNC(=O)C(=O)C(Cc1ccccc1)NC(=O)C(CC(C)C)NC(=O)OCc1ccccc1` (stereo not drawn) [Z--Leu--Phe--CONH--nPr, Z-Leu-Phe-CONH-nPr], the Ki in assay [1] was 3 µM. Moreover, in assay [2], the “platelet” value came to 24.

As a reminder, the Ki is the equilibrium dissociation constant of an inhibitor or competing ligand from its target.
